EC50 data for 22 molecules are collected here from US20260200916A1, “6,6 BICYCLIC HETEROCYLES USEFUL AS INHIBITORS OF NOD-LIKE RECEPTOR PROTEIN 3” (Merck Sharp & Dohme LLC, priority 2022, published 2026).

Molecules are shown by their SMILES.

This test deals with T1, NLRP3 inflammasome (Homo sapiens, UniProt Q96P20).
T1 construct: host or cells: THP-1 human monocytic cells, PMA-differentiated, gramicidin-stimulated
T1 sequence (Q96P20 whole entry): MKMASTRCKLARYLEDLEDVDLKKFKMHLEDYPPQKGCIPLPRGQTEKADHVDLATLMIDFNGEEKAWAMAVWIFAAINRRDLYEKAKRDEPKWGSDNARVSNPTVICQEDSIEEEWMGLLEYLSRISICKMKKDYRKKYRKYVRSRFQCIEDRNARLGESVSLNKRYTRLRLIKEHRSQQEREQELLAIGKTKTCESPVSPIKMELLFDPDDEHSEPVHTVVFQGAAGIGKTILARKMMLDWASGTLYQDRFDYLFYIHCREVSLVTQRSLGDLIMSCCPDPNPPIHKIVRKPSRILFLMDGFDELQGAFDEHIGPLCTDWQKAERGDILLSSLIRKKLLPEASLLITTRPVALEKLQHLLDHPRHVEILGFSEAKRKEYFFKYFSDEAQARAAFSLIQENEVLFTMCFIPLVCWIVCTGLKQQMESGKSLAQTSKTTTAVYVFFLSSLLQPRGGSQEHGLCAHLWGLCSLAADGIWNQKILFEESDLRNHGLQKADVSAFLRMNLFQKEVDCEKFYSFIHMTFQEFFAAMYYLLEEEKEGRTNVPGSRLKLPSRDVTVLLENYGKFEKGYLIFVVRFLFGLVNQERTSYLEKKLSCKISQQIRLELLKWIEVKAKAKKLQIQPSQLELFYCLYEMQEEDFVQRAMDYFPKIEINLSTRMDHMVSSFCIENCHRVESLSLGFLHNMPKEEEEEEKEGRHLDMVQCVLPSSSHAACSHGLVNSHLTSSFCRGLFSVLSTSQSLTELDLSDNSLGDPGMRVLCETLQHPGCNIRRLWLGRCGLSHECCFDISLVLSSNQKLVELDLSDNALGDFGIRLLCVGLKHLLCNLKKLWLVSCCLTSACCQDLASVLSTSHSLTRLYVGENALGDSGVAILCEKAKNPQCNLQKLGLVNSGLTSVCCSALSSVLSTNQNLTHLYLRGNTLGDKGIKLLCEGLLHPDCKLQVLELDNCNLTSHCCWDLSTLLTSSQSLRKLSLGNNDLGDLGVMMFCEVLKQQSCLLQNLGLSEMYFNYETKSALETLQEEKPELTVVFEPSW
Nature of the test: ASC-SPECK formation in THP-1 cells after gramicidin stimulation (NLRP3 inflammasome activation). In kind it is cell-based. As to conditions: PMA-treated human monocytic THP-1 cells, compound added 1 h before 12.5 ug/ml gramicidin, 3-hour treatment, ASC SPECK imaging; read-out: EC50 (nM), inhibition of NLRP3 inflammasome activation. Here is the method:
The ability of compounds to inhibit NLRP3 inflammasome activation was determined in vitro by monitoring formation of the ASC-SPECK in human monocytic THP-1 cells after stimulation. THP-1 cells (ATCC catalog #TIB-202) were maintained in complete growth media containing Roswell Park Memorial Institute RPMI (ATCC catalog #30-2001), 10% heat inactivated fetal bovine serum, 1× penicillin/streptomycin and 0.05 mM 2-mercaptoethanol. At the start of the assay, undifferentiated THP-1 cells were plated at a density of 20,000 cells per well in a 384-well plate (Poly-D-lysine coated Cell Carrier Ultra microplate, Perkin Elmer catalog #6057500) in complete growth media supplemented with 10 ng/ml phorbol 12-myristate 13-acetate (PMA; Sigma catalog #P8139), and then incubated overnight. The next day, media was replaced with assay media [RPMI (Gibco catalog #11875-093), 0.01% bovine serum albumin (BSA)]. Compounds were serially diluted in DMSO and then added to wells one hour prior to the addition of 12.5 ug/ml Gramicidin (Enzo Lifescience, catalog #ALX-350-233-M005). All incubations were carried out at 37° C. (5% C02/95% air). Following a 3-hour treatment with gramicidin, cells are fixed with 4% paraformaldehyde and stored at 4° C. until immunofluorescence staining.
Immunofluorescence staining: Anti-ASC antibody (MBL catalog #D086-3) was desalted and labeled with Alexa 488 antibody labeling kit (Thermo catalog #A20181) prior to use as described below. After fixation, the following steps were carried out at room temperature. Cells were first permeabilized with 0.3% Triton X-100 in phosphate-buffered saline (PBS) for 15 minutes and then incubated in blocking buffer containing 5% goat serum, 0.3% tween-20 and 0.03% sodium azide in PBS for 1 hour. Cells were stained with a mixture of ASC-Alexa 488 antibody (diluted 1:200 in blocking buffer) and nuclear stain DRAQ5 (1:5000 in blocking buffer, Thermo catalog #62251) in blocking buffer for 1 hour. Following a wash with 0.3% Tween-20 in PBS, plates were imaged with an Opera Phenix High Content Screening System. The number of DRAQ5 positive cells containing ASC SPECKS were quantified in each well.
Data analysis: EC50 values were calculated by standard curve-fitting analysis using an internally developed program in TIBCO Spotfire software.
Take `Cc1cc(C(F)(F)F)cc(O)c1-c1cc2c(nn1)N(C13CCCC(O)(C1)C3)CCC2` [Example 3, 5-(3-(2-hydroxy-6-methyl-4-(trifluoromethyl)phenyl)-6,7-dihydropyrido[2,3-c]pyridazin-8(5H)-yl)bicyclo[3.1.1]heptan-1-ol]: the EC50 – broadly, the concentration at which the effect is half-maximal – was 125 nM.

Turning to `Cc1cc(C(F)(F)F)cc(O)c1-c1cc2c(nn1)N(C[C@@H]1C[C@@H](F)CN1C(=O)C1CC1)CCC2` [Example 19, cyclopropyl((2S,4R)-4-fluoro-2-((3-(2-hydroxy-6-methyl-4-(trifluoromethyl)phenyl)-6,7-dihydropyrido[2,3-c]pyridazin-8(5H)-yl)methyl)pyrrolidin-1-yl)methanone], the EC50 was 431 nM. Next, `Cc1cc(C(F)(F)F)cc(O)c1-c1cc2c(nn1)N([C@H]1C[C@@](C)(O)C1)CCC2` [Example 1, 2-(8-((1s,3s)-3-hydroxy-3-methylcyclobutyl)-5,6,7,8-tetrahydropyrido[2,3-c]pyridazin-3-yl)-3-methyl-5-(trifluoromethyl)phenol]: 42 nM; `CCC(=O)N1C[C@H](F)C[C@H]1CN1CCCc2cc(-c3c(C)cc(C(F)(F)F)cc3O)nnc21` [Example 18, 1-((2S,4R)-4-fluoro-2-((3-(2-hydroxy-6-methyl-4-(trifluoromethyl)phenyl)-6,7-dihydropyrido[2,3-c]pyridazin-8(5H)-yl)methyl)pyrrolidin-1-yl)propan-1-one]: 204 nM; `Cc1cc(C(F)(F)F)cc(O)c1-c1cc2c(nn1)N(C1CC(C)(C)C1O)CCC2` (single isomer, unassigned) [Example 6, 2-(8-((1R,2S or 1S,2R)-2-hydroxy-3,3-dimethylcyclobutyl)-5,6,7,8-tetrahydropyrido[2,3-c]pyridazin-3-yl)-3-methyl-5-(trifluoromethyl)phenol]: 118 nM. Next, `Cc1cc(C(F)(F)F)cc(O)c1-c1cc2c(nn1)N(C[C@@H]1C[C@H](F)CN1S(C)(=O)=O)CCC2` [Example 22, 2-(8-(((2S,4S)-4-fluoro-1-(methylsulfonyl)pyrrolidin-2-yl)methyl)-5,6,7,8-tetrahydropyrido[2,3-c]pyridazin-3-yl)-3-methyl-5-(trifluoromethyl)phenol]: 784 nM.

With `CCN1CCC[C@@H](N2CCCc3c2nnc(-c2ccc(C(F)(F)F)cc2O)c3C)C1` [Example 9, (R)-2-(8-(1-ethylpiperidin-3-yl)-4-methyl-5,6,7,8-tetrahydropyrido[2,3-c]pyridazin-3-yl)-5-(trifluoromethyl)phenol], the EC50 worked out at 48 nM. For `CCN1CCC[C@@H](N2CCCc3c2nnc(-c2ccc(C(F)(F)F)nc2OC(F)F)c3C)C1` [Example 11, (R)-3-(2-(difluoromethoxy)-6-(trifluoromethyl)pyridin-3-yl)-8-(1-ethylpiperidin-3-yl)-4-methyl-5,6,7,8-tetrahydropyrido[2,3-c]pyridazine] the value was 1070 nM; for `Cc1cc(C(F)(F)F)cc(O)c1-c1cc2c(nn1)N(C[C@@H]1C[C@@H](F)CN1C(=O)C1CCC1)CCC2` [Example 20, cyclobutyl((2S,4R)-4-fluoro-2-((3-(2-hydroxy-6-methyl-4-(trifluoromethyl)phenyl)-6,7-dihydropyrido[2,3-c]pyridazin-8(5H)-yl)methyl)pyrrolidin-1-yl)methanone], 874 nM.

On to `Cc1cc(C(F)(F)F)cc(O)c1-c1cc2c(nn1)N(C[C@@H]1C[C@@H](F)CN1S(C)(=O)=O)CCC2` [Example 21, 2-(8-(((2S,4R)-4-fluoro-1-(methylsulfonyl)pyrrolidin-2-yl)methyl)-5,6,7,8-tetrahydropyrido[2,3-c]pyridazin-3-yl)-3-methyl-5-(trifluoromethyl)phenol], for which the EC50 came to 351 nM. For `Cc1cc(C(F)(F)F)cc(O)c1-c1cc2c(nn1)N(C[C@@H]1C[C@H](F)CN1C)CCC2` [Example 13, 2-(8-(((2S,4S)-4-fluoro-1-methylpyrrolidin-2-yl)methyl)-5,6,7,8-tetrahydropyrido[2,3-c]pyridazin-3-yl)-3-methyl-5-(trifluoromethyl)phenol] the value was 629 nM; for `CCN1CCC[C@@H](N2CCCc3cc(-c4c(C)cc(C(F)(F)F)cc4O)nnc32)C1` [Example 2, (R)-2-(8-(1-ethylpiperidin-3-yl)-5,6,7,8-tetrahydropyrido[2,3-c]pyridazin-3-yl)-3-methyl-5-(trifluoromethyl)phenol], 5 nM. Next, `CC(=O)N1C[C@@H](F)C[C@H]1CN1CCCc2cc(-c3c(C)cc(C(F)(F)F)cc3O)nnc21` [Example 17, 1-((2S,4S)-4-fluoro-2-((3-(2-hydroxy-6-methyl-4-(trifluoromethyl)phenyl)-6,7-dihydropyrido[2,3-c]pyridazin-8(5H)-yl)methyl)pyrrolidin-1-yl)ethan-1-one]: 597 nM; `Cc1cc(C(F)(F)F)cc(O)c1-c1cc2c(nn1)N([C@H]1C[C@@](C)(O)C1)C[C@H](N)C2` [Example 8, 2-((R)-6-amino-8-((1s,3S)-3-hydroxy-3-methylcyclobutyl)-5,6,7,8-tetrahydropyrido[2,3-c]pyridazin-3-yl)-3-methyl-5-(trifluoromethyl)phenol]: 285 nM; `Cc1cc(C(F)(F)F)cc(O)c1-c1cc2c(nn1)N(C1CC(C)(C)C1O)CCC2` (single isomer, unassigned) [Example 5, 2-(8-((1S,2R or 1R,2S)-2-hydroxy-3,3-dimethylcyclobutyl)-5,6,7,8-tetrahydropyrido[2,3-c]pyridazin-3-yl)-3-methyl-5-(trifluoromethyl)phenol]: 1430 nM. Next, `CC(=O)N1C[C@H](F)C[C@H]1CN1CCCc2cc(-c3c(C)cc(C(F)(F)F)cc3O)nnc21` [Example 16, 1-((2S,4R)-4-fluoro-2-((3-(2-hydroxy-6-methyl-4-(trifluoromethyl)phenyl)-6,7-dihydropyrido[2,3-c]pyridazin-8(5H)-yl)methyl)pyrrolidin-1-yl)ethan-1-one]: 317 nM. On to `Cc1cc(C(F)(F)F)cc(O)c1-c1cc2c(nn1)N([C@H]1CN(C)CC[C@H]1O)CCC2` [Example 14, (3S,4R)-3-(3-(2-hydroxy-6-methyl-4-(trifluoromethyl)phenyl)-6,7-dihydropyrido[2,3-c]pyridazin-8(5H)-yl)-1-methylpiperidin-4-ol], for which the 50% effective concentration (EC50) came to 27 nM.

In the case of `Cc1cc(C(F)(F)F)cc(O)c1-c1cc2c(nn1)N([C@@H]1CCCC[C@H]1O)CCC2` [Example 4, 2-(8-((1R,2R)-2-hydroxycyclohexyl)-5,6,7,8-tetrahydropyrido[2,3-c]pyridazin-3-yl)-3-methyl-5-(trifluoromethyl)phenol], the EC50 amounted to 157 nM.

As for `Cc1cc(C(F)(F)F)cc(O)c1-c1cc2c(nn1)N(C[C@@H]1C[C@H](F)CN1)CCC2` [Example 7, 2-(8-(((2S,4S)-4-fluoropyrrolidin-2-yl)methyl)-5,6,7,8-tetrahydropyrido[2,3-c]pyridazin-3-yl)-3-methyl-5-(trifluoromethyl)phenol], the EC50 stood at 240 nM. For `CCN1CCC[C@@H](N2CCCc3c2nnc(-c2ccc4occc4c2)c3C)C1` [Example 12, (R)-3-(benzofuran-5-yl)-8-(1-ethylpiperidin-3-yl)-4-methyl-5,6,7,8-tetrahydropyrido[2,3-c]pyridazine] the value was 253 nM. Next, `CCN1C[C@@H](F)C[C@H]1CN1CCCc2cc(-c3c(C)cc(C(F)(F)F)cc3O)nnc21` [Example 15, 2-(8-(((2S,4S)-1-ethyl-4-fluoropyrrolidin-2-yl)methyl)-5,6,7,8-tetrahydropyrido[2,3-c]pyridazin-3-yl)-3-methyl-5-(trifluoromethyl)phenol]: 692 nM; `CCN1CCC[C@@H](N2CCCc3c2nnc(-c2ccc(C(F)(F)F)cc2OC(F)F)c3C)C1` [Example 10, (R)-3-(2-(difluoromethoxy)-4-(trifluoromethyl)phenyl)-8-(1-ethylpiperidin-3-yl)-4-methyl-5,6,7,8-tetrahydropyrido[2,3-c]pyridazine]: 380 nM.
